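Growth conditions: 96-well plates. Treatment: test compound, 48 hours, 5 concentrations. Analysis: linear interpolation between bracketing concentrations; unreached endpoints set to highest concentration. GI50 marks 50% less growth. Definition used: TGI = concentration required for complete inhibition of growth.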
How the values were obtained:
Assay in all cases: inhibition of tumour cell growth, NCI panel, 48 h
[1] = system: 786-0 renal
[2] = system: A498 renal
[3] = system: A549 NSCLC
[4] = system: ACHN renal
[5] = system: BT-549 breast
[6] = system: CAKI-1 renal
[7] = system: CCRF-CEM leukemia
[8] = system: DU-145 prostate
[9] = system: EKVX NSCLC
[10] = system: HCC-2998 colon
[11] = system: HCT-15 colon
[12] = system: HL-60(TB) leukemia
[13] = system: HOP-62 NSCLC
[14] = system: HOP-92 NSCLC
[15] = system: HS 578T breast
[16] = system: HT29 colon
[17] = system: IGROV1 ovarian
[18] = system: K-562 leukemia
[19] = system: KM12 colon
[20] = system: LOX IMVI melanoma
[21] = system: M14 melanoma
[22] = system: MALME-3M melanoma
[23] = system: MCF7 breast
[24] = system: MDA-MB-231 breast
[25] = system: MDA-MB-435
[26] = system: MDA-MB-468 breast
[27] = system: MOLT-4 leukemia
[28] = system: NCI-H226 lung
[29] = system: NCI-H23 lung
[30] = system: NCI-H522 lung
[31] = system: NCI/ADR-RES ovarian
[32] = system: OVCAR-3 ovarian
[33] = system: OVCAR-4 ovarian
[34] = system: OVCAR-5 ovarian
[35] = system: OVCAR-8 ovarian
[36] = system: PC-3 prostate
[37] = system: RPMI-8226 leukemia
[38] = system: RXF 393 renal
[39] = system: SF-268 CNS
[40] = system: SF-295 CNS
[41] = system: SF-539 CNS
[42] = system: SK-MEL-2 melanoma
[43] = system: SK-MEL-28 melanoma
[44] = system: SK-MEL-5 melanoma
[45] = system: SK-OV-3 ovarian
[46] = system: SNB-19 CNS
[47] = system: SNB-75 CNS
[48] = system: SW-620 colon
[49] = system: T-47D breast
[50] = system: TK-10 renal
[51] = system: UACC-257 melanoma
[52] = system: UACC-62 melanoma
[53] = system: UO-31 renal

In the case of `CN1CCCN(Cc2ccc(C(=O)Nc3cccc(Nc4ccc5c(O)cccc5n4)c3)cc2C(F)(F)F)CC1`, the GI50 [1] is reported as 2.06 µM, the TGI [1] is reported as 3.8 µM and the GI50 [2] is reported as 15.3 µM. It also gave a TGI [2] of 29 µM, a GI50 [3] of 3.63 µM and a TGI [3] of 15.1 µM. For the same compound, the GI50 [4] was 1.92 µM, the TGI [4] was 3.74 µM and the GI50 [5] was 1.8 µM. It also gave a TGI [5] of 3.28 µM, a GI50 [6] of 1.8 µM and a TGI [6] of 3.94 µM. The GI50 [7] was 2.07 µM, the TGI [7] was > 100 µM and the GI50 [8] was 3.27 µM. The TGI [8] was 10.1 µM, the GI50 [9] was 1.82 µM and the TGI [9] was 3.5 µM. For the same compound, the GI50 [10] was 1.8 µM, the TGI [10] was 3.19 µM and the GI50 [11] was 1.93 µM. For the same compound, the TGI [11] was 4.04 µM, the GI50 [12] was 2.35 µM and the TGI [12] was 5.52 µM. The GI50 [13] was 2.03 µM, the TGI [13] was 4.58 µM and the GI50 [14] was 1.64 µM. For the same compound, the TGI [14] was 4.41 µM, the GI50 [15] was 1.93 µM and the TGI [15] was 4.85 µM. The GI50 [16] was 1.92 µM, the TGI [16] was 3.76 µM and the GI50 [17] was 2.56 µM. For the same compound, the TGI [17] was 6.88 µM, the GI50 [18] was 2.18 µM and the TGI [18] was > 100 µM. It also gave a GI50 [19] of 1.98 µM, a TGI [19] of 3.99 µM and a GI50 [20] of 1.63 µM. The TGI [20] was 2.99 µM, the GI50 [21] was 1.89 µM and the TGI [21] was 4.49 µM. For the same compound, the GI50 [22] was 1.7 µM, the TGI [22] was 3.14 µM and the GI50 [23] was 1.68 µM. For the same compound, the TGI [23] was 3.2 µM, the GI50 [24] was 1.65 µM and the TGI [24] was 3.18 µM. The GI50 [25] was 1.78 µM, the TGI [25] was 3.6 µM and the GI50 [26] was 1.66 µM. For the same compound, the TGI [26] was 3.13 µM, the GI50 [27] was 2.11 µM and the TGI [27] was 6.94 µM. The GI50 [28] was 16.7 µM, the TGI [28] was 46.8 µM and the GI50 [29] was 1.78 µM. For the same compound, the TGI [29] was 3.31 µM, the GI50 [30] was 1.84 µM and the TGI [30] was 3.51 µM. For the same compound, the GI50 [31] was 6.43 µM, the TGI [31] was 68.5 µM and the GI50 [32] was 1.97 µM. The TGI [32] was 4.41 µM, the GI50 [33] was 3.83 µM and the TGI [33] was 15.4 µM. The GI50 [34] was 11.4 µM, the TGI [34] was 23.9 µM and the GI50 [35] was 2.51 µM. For the same compound, the TGI [35] was 6.22 µM, the GI50 [36] was 1.87 µM and the TGI [36] was 5.73 µM. The GI50 [37] was 2.89 µM, the TGI [37] was 9.36 µM and the GI50 [38] was 1.85 µM. The TGI [38] was 3.71 µM, the GI50 [39] was 2.14 µM and the TGI [39] was 5.24 µM. It also gave a GI50 [40] of 1.67 µM, a TGI [40] of 3.07 µM and a GI50 [41] of 1.7 µM. The TGI [41] was 3.12 µM, the GI50 [42] was 1.81 µM and the TGI [42] was 3.46 µM. The GI50 [43] was 1.82 µM, the TGI [43] was 3.27 µM and the GI50 [44] was 1.72 µM. It also gave a TGI [44] of 3.09 µM, a GI50 [45] of 11.1 µM and a TGI [45] of 27.1 µM. It also gave a GI50 [46] of 2.03 µM, a TGI [46] of 3.91 µM and a GI50 [47] of 1.32 µM. It also gave a TGI [47] of 7.46 µM, a GI50 [48] of 1.95 µM and a TGI [48] of 3.44 µM. For the same compound, the GI50 [49] was 3.46 µM, the TGI [49] was 13.3 µM and the GI50 [50] was 2.8 µM. It also gave a TGI [50] of 8.95 µM, a GI50 [51] of 1.6 µM and a TGI [51] of 3.2 µM. It also gave a GI50 [52] of 1.69 µM, a TGI [52] of 3.13 µM and a GI50 [53] of 2.04 µM. It also gave a TGI [53] of 4.96 µM.

From PubChem BioAssay (NCI)
